Two compounds from paper PMC4648050, “Discovery of Inhibitors of Trypanosoma brucei by Phenotypic Screening of a Focused Protein Kinase Library” (Chemmedchem, 2015) can be followed below.

For orientation: EC50 means the concentration needed to bring the measured effect to its halfway point. In general, Tmax refers to the time at which the peak concentration occurs. The term Cmax denotes the maximum level reached in the sampled fluid or tissue. For orientation: half-life means how long it takes for the measured level to halve. Usually kinetic solubility stands for the concentration staying in solution when a stock, usually in DMSO, is diluted into the medium.

Molecules are shown by their SMILES. Values after ≈ are worked out from the molar mass of the structure shown. Read-outs that look alike come from different tables or passages of the source.

A short description of data set [1]: Plasma protein binding (equilibrium dialysis). The format is in vitro ADME. The note with it: mouse plasma. The protocol: Plasma protein binding experiments: In brief, a 96-well equilibrium dialysis apparatus was used to determine the free fraction in plasma for each compound (HT Dialysis LLC, Gales Ferry, CT, USA). Membranes (12-14 kDa cutoff) were conditioned in deionised H2O for 60 min, followed by conditioning in 80:20 deionised H2O/EtOH for 20 min, and then rinsed in isotonic buffer before use. Female CD1 mouse plasma was removed from the freezer and allowed to thaw on the day of experiment. Thawed plasma was then centrifuged (Allegra […], Beckman Coulter, USA), spiked with test compound (10 μg g^-1), and 150 μL aliquots (n=6 replicate determinations) loaded into the 96-well equilibrium dialysis plate. Dialysis against isotonic buffer (150 μL) was carried out for 5 h in a temperature-controlled incubator at ∼37 °C (Barworld Scientific Ltd., UK) using an orbital microplate shaker at 125 rpm (Barworld Scientific). At the end of the incubation period, aliquots of plasma or buffer were transferred to micronic tubes (Micronic B.V., the Netherlands), and the composition in each tube was balanced with control fluid such that the volume of buffer to plasma is the same. Sample extraction was performed by the addition of 400 μL MeCN containing an appropriate internal standard. Samples were allowed to mix for 1 min and then centrifuged at 3000 rpm in 96-well blocks for 15 min (Allegra […], Beckman Coulter, USA). All samples were analysed by UPLC-MS/MS on a Quattro Premier XE Mass Spectrometer (Waters Corp.). The unbound fraction was determined as the ratio of the peak area in buffer to that in plasma.

For data set [2], the system named is T. b. brucei. In words: Trypanosome proliferation assay. Format: cell-based, Trypanosoma brucei brucei. As to conditions: geometric mean of two or more determinations, standard cell viability (resazurin) assay, read-out: EC50 T. b. brucei. As to the method: (§1) Trypanosome and MRC5 proliferation assay: Measurement of inhibition of the proliferation of MRC5 cells (human lung fibroblasts) and T. brucei bloodstream-stage cells was performed using a modification of a cell viability assay previously described.[35, 36] Compounds ([…] to 0.5 nM) were incubated with 2×10^3 cells per well in 0.2 mL of the appropriate culture medium (MEM with 10 % foetal bovine serum for MRC5 cells) in clear 96-well plates. Plates were incubated at 37 °C in the presence of 5 % CO2 for 69 h. Resazurin was then added to a final concentration of 50 μM, and plates were incubated as above for a further 4 h before being read on a BioTek Flx800 fluorescence plate reader.
In general terms: Alamar Blue is a resazurin reagent that responds to reducing activity.

The nature of data set [3]: In vivo pharmacokinetics in mice. Set-up: species or system female NMRI mice. As to conditions: mouse, whole blood, ip, blood; for Tmax: female, NMRI; for AUC(0-t): read-out: AUC(0–8) (converted). As to the method: In vivo pharmacokinetics in mice: Compounds 1 and 28 were dosed orally by gavage as a solution at 5 mg free base per kg or 20 mg free base per kg, respectively (dose volume: 5 or 10 mL kg^−1, dose vehicle: 5 % DMSO, 40 % PEG400, 55 % distilled H2O) to female NMRI mice (n=3). Compounds 28, 38, and 56 were dosed as a bolus solution intraperitoneally at 10 (56) or 20 (28 and 38) mg free base per kg (dose volume: 10 mL kg^−1, dose vehicle: 5 % DMSO, 40 % PEG400, 55 % sterile H2O) to female NMRI mice (n=3). Female NMRI mice were chosen, as these represent the sex and strain used for the stage-1 and stage-2 HAT efficacy models. Blood samples were taken from each mouse at 5 (i.p. only), 15 and 30 min, 1, 2, 4, 6 and 8 h post-dose and mixed with two volumes of distilled H2O. After suitable sample preparation, the concentration of each compound in blood was determined by UPLC–MS/MS using a Quattro Premier XE (Waters, USA). Pharmacokinetic parameters were derived from the mean blood concentration time curve using PKsolutions software ver. 2.0 (Summit Research Services, USA).

Data set [4] in a line: Intrinsic clearance in mouse liver microsomes. The format is in vitro ADME. As to conditions: mouse hepatic microsomes, 0.5 μM compound. As to the method: Intrinsic clearance experiments: Test compound (0.5 μM) was incubated with female CD1 mouse liver microsomes (Xenotech LLC; 0.5 mg mL^−1 50 mM potassium phosphate buffer, pH 7.4), and the reaction started with the addition of excess NADPH (8 mg mL^−1 50 mM potassium phosphate buffer, pH 7.4). Immediately, at t0, then at 3, 6, 9, 15, and 30 min an aliquot (50 μL) of the incubation mixture was removed and mixed with MeCN (100 μL) to stop the reaction. Internal standard was added to all samples, the samples were centrifuged to sediment precipitated protein, and the plates were then sealed prior to UPLC–MS/MS analysis using a Quattro Premier XE instrument (Waters Corp., USA). XLfit (IDBS, UK) was used to calculate the exponential decay and consequently the rate constant (k) from the ratio of peak area of test compound to internal standard at each time point. The rate of intrinsic clearance [CLint, mL min^−1 (g liver)^−1] of each test compound was then calculated with Equation (3): […]
in which V [mL (mg protein)^−1] is the incubation volume per mg protein added, and microsomal protein yield is taken as 52.5 mg protein per gram of liver. Verapamil (0.5 μM) was used as a positive control to confirm acceptable assay performance.
A general note: Microsomes from liver hold many membrane-bound enzymes, among them those of drug oxidation.

For data set [5], the system named is MRC5 cells (human lung fibroblasts). In words: MRC5 proliferation assay. Format: cell-based. As to conditions: geometric mean of two or more determinations. The protocol:
as §1

A short description of data set [6]: Kinetic aqueous solubility (laser nephelometry). The format is physicochemical. As to conditions: Milli-Q water with 2.5% DMSO, kinetic from dmso stock, range 250–12 μM, read-out: Aq. Sol. (aqueous kinetic solubility). As to the method: Solubility experiments: The kinetic aqueous solubility of the test compounds was measured using laser nephelometry. Compounds were subject to serial dilution from 10 mM to 0.5 mM in DMSO. An aliquot was then mixed with Milli-Q H2O to obtain an aqueous dilution plate with a final concentration range of 250–12 μM, with a final DMSO concentration of 2.5 %. Triplicate aliquots were transferred to a flat-bottomed polystyrene plate which was immediately read on the NEPHELOstar (BMG Lab Technologies). The amount of laser scatter caused by insoluble particulates (relative nephelometry units, RNU) was plotted against compound concentration using a segmental regression fit, with the point of inflection being quoted as the compounds′ aqueous solubility (in μM).

The test system of data set [7] is T. brucei bloodstream-stage cells. In words: Static–cidal (SC) assay. The format is cell-based, Trypanosoma brucei brucei. The note with it: for EC50: 48 h. The protocol:
Determination of cidality against T. brucei bloodstream-stage cells was performed using a static–cidal (SC) assay as previously reported.[26] Briefly, bloodstream-form trypanosomes were seeded into 384-well plates at 4×10^5 mL^−1 (50 μL per well), followed by immediate addition of resazurin (50 μM final) to one of the plates, and all plates were incubated at 37 °C, 5 % CO2. After 4 h the t0 plate was read using a PerkinElmer Victor 3 plate reader (λex=528 nm, λem=590 nm). The second plate was processed in the same manner 20 h later, and at 44 h the last plate was processed. The minimum cidal concentration (MCC) is defined as the lowest concentration of drug that results in a decrease of resorufin signal over time. For dose–response curves from this assay either a monophasic or a biphasic equation was used, depending on which one provided the best fit. For monophasic fits, the following four-parametric equation [Eq. (1)] was used:
in which A=percent inhibition at bottom, B=percent inhibition at top, C=EC50, D=slope, x=inhibitor concentration, and y=percent inhibition. Equation (2) was used for biphasic fits:
for which A=percent inhibition at mid-plateau, B=slope, C=log[SC EC50(1)], D=log[SC EC50(2)]. Thus SC EC50(1) is the EC50 for the first phase of the curve, and SC EC50(2) is that for the second phase. Inhibition at the bottom of the curve is fixed at 0 % and at the top, 100 %.

Turning to `O=c1[nH]c2ncc(-c3ccccc3)nc2n1C1CCOCC1` [Compound 38], the “protein binding (unbound)” value in data set [1] is listed as 15 % unbound. Also, the concentration for a half-maximal effect (EC50) in data set [2] (Trypanosoma brucei) is 100 nM. Besides, the Tmax in data set [3] (20 mg/kg, 20 mg kg^−1, female NMRI mice) amounted to 2 h. Also, in data set [3] (20 mg kg^−1, female NMRI mice), the Cmax stood at 83 ng/mL, the half-life was 132 min and the AUC(0-t) is 367 ng·h/mL. In data set [4], this compound came in with a CLint of 1.6 mL/min/g. Further, the EC50 in data set [5] is greater than 50 µM. Besides, the kinetic solubility in data set [6] came out at 55 µM (≈ 16.3 µg/mL).

For `O=c1[nH]c2ncc(N3CCCCC3)cc2n1C1CCCCC1` [Compound 56], the fraction unbound at 5 h, 10 μg g^−1 in data set [1] (female, CD1, equilibrium dialysis, read-out: PPB) came out at 0.11. In addition, the concentration giving a half-maximal response (EC50) is 93 nM in data set [2] (Trypanosoma brucei); 90 nM in data set [2]; greater than 50 µM in data set [5]; 70 nM in data set [7] (Trypanosoma brucei, static cidal EC50, first site/phase, read-out: SC EC50(1)); greater than 50000 nM in data set [7] (Trypanosoma brucei, static cidal EC50, second site/phase, read-out: SC EC50(2)). Besides, the Tmax in data set [3] (10 mg/kg, 10 mg kg^−1, female NMRI mice) was 0.25 h. The compound further had a Cmax in data set [3] (10 mg kg^−1, female NMRI mice) of 580 ng/mL. The compound also showed a half-life in data set [3] (10 mg kg^−1, female NMRI mice) of 42 min. Further, the AUC(0-t) in data set [3] (10 mg kg^−1, female NMRI mice) was 883 ng·h/mL. In data set [4], the CLint worked out at 3.6 mL/min/g. For the same compound, the solubility (kinetic) in data set [6] is greater than 250 µM. Moreover, the MCC in data set [7] (Trypanosoma brucei, static–cidal assay in triplicate, read-out: MCC (minimal cidal concentration)) was greater than 50 µM. For the same compound, the “mode of antiparasitic effect (in words)” value in data set [7] (text and figure legend, at concentrations tested) is on record as “growth-slowing or static behaviour”.
